Test results published in patent publication US20230357320A1, “HELICAL STAPLED PEPTIDES AND USES THEREOF” (FOG PHARMACEUTICALS, INC., priority 2020, published 2023).
In brackets after ≈: the same amount, converted by molar mass. Where two headings read alike, the source gives them in different places. Starred links: 1 amine or outer side, 2 acyl side, 3 side chain; linkers in the order of their positions; H or OH if unused. Positions of bridges follow the written chain, without caps; N, C: chain ends. Non-standard residues stand in square brackets, D forms with d. Residues, ends and D or L forms follow the SMILES beside them. *: point of attachment. FITC = O=C1OC2(c3ccc(O)cc3Oc3cc(O)ccc32)c2ccc(NC(=S)*)cc21; X1 = O=C([C@]1(CC=[*:3])CCCN1[*:1])[*:2]; S5 = C=CCCC[C@](C)(N)C(=O)O; Nle = CCCC[C@H](N)C(=O)O; βAla = NCCC(=O)O

Experiments:
[1] = PAMPA (Parallel Artificial Membrane Permeability Assay); set-up: Papp at 5 h: dose or concentration left out as unconfirmed;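 also: Phospholipid-membrane PAMPA, donor and acceptor in DPBS pH 7.4 with 5% DMSO, 37 °C for 5 h, compound in each well quantified by reverse-phase HPLC-MS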
[2] = CHI Log D measurement (chromatographic hydrophobicity index); settings: reverse-phase HPLC, Phenomenex Gemini C-18 column, pH 7.4
[3] = target: T1, ERβ LBD (Homo sapiens, UniProt Q92731); assay: Competition fluorescence polarization (FP) binding assay with FITC-ERL4 probe
T1 construct: pET28a+ vector containing ERβ LBD (residues from 261 to 500) along with an N-terminal His6-yBBr-TEV tag; His6 (N); yBBr (N); TEV cleavage site (N); made in house; host or cells: E. coli BL21(DE3) pLysS
Protocol: In addition to the PAMPA assay, to study the affinity of the first-generation ProLock™ stapled peptides to the Estrogen receptor p ligand-binding domain (ERβ LBD), a fluorescence polarization (FP) binding assay in competition format was used in the presence of the endogenous ERβ LBD ligand estradiol. Competition Fluorescence Polarization (FP) assay was performed on the peptides to determine their half-maximal effective concentration (EC50). To do this, FITC labeled ERL4 peptide (FITC-βAla-His-Pro-Leu-Leu-Nle-Arg-Leu-Leu-Leu-Ser-Pro-CONH2) was synthesized to be used as a fluorescence probe based on existing literature (Fuchs et al., Journal of the American Chemical Society 2013, 135 (11), 4364-4371). Direct FP was performed in black 384-well plates (Corning). The final volume of each assay well was 40 μL with constant concentration of FITC labeled ERL4 peptide (10 nM) and variable concentrations of ERβ LBD protein.
ERβ LBD expression and purification was performed as follows. BL21(DE3) pLysS E. coli cells were transformed with a pET28a+ vector containing ERβ LBD (residues from 261 to 500) along with an N-terminal His6-yBBr-TEV tag. An overnight culture in 10 mL of TB media containing 50 μg/mL kanamycin was prepared from a single bacterial colony. The overnight culture was subsequently added to 1 liter of autoclaved TB media containing 50 μg/mL kanamycin and shaken at 37° C. until an OD of 0.6-0.8 was reached. IPTG was added to the culture and left shaking for 6 hours. Bacterial culture was pelleted and resuspended in lysis buffer. Resuspended bacterial culture was incubated at 0° C. for 10 minutes before sonication at 65% amplitude with 10-sec cycles using a Branson Sonifier. The lysate was then cleared by centrifugation at 8000×g for 20 min. […] The expected molecular weight of the ERβ LBD protein is 30.8 KDa, which molecular weight was confirmed by SDS PAGE analysis. Purified ERβ LBD was concentrated to 90 μM and was stored at −80° C. buffer.
Competition FP assays were also employed. These were performed in black 384-well plates (Corning). The final volume of each assay well was 80 μL containing constant concentrations of estradiol (1 μM) and FITC labeled ERL4 (10 nM). The ERβ LBD concentration was held constant (200 nM) while varying the concentration of ProLock stapled peptides (3-fold dilution from 10 μM). Upon addition of samples to each well, the plate was centrifuged for 10 seconds at 3000 rpm and incubated at 4° C. for 1 hour. FP measurements were performed at room temperature with excitation and emission wavelengths at 485 and 535 nm using a Clariostar microplate reader (BMG Labtech). Each plate had high and low polarization samples, which are used to normalize the assay data. The competition FP results were analyzed by Prism 7 (GraphPad). The non-linear regression analysis of the data was used to determine the half-maximal effective concentration (EC50) of ProLock stapled peptides. […] The normalized FP values shown in FIG. 6 are mean±S.E.M of at least four independent replicates.

[4] = in vitro; set-up: dose or concentration left out as unconfirmed; settings: PAMPA, pH 7.4, PAMPA Pe
[5] = physchem; settings: pH 7.4
[6] = target: T2, Estrogen receptor β ligand-binding domain (ERβ LBD), residues 261 to 500, with N-terminal His6-yBBr-TEV tag (UniProt Q92731 261-500); assay: direct fluorescence polarization; 10 nM probe, ERβ LBD titrated from 5 µM with estradiol; 1:1 binding model with Hill slope
T2 construct: range 261-500; Expressed in E. coli BL21(DE3) pLysS from pET28a+, purified by Ni-NTA and SEC; Assays were run in the presence of estradiol; also called ER LBD; not shown: N-terminal His6-yBBr-TEV tag
T2 sequence (Q92731 261-500): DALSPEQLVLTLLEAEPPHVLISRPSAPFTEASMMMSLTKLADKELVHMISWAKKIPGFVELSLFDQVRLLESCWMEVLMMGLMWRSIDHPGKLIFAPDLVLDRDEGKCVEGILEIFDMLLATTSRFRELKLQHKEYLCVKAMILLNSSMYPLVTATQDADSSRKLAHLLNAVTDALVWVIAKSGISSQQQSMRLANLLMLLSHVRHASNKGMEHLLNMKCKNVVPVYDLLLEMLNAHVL

Molecule	Papp at 5 h ([1]; PAMPA, pH 7.4) [×10⁻⁶ cm/s]	% Retention ([1]; Table 5, compound retained in solution at the end of the PAMPA assay compared to the input sample) [%]	chromatographic logD [2]	EC50 [3] [nM]	Papp at 5 h [4] [×10⁻⁶ cm/s]	solubility [5] [µM]	PAMPA Pe	% Retention (PAMPA) [%]	EC50 ([3]; binding towards the ERβ LBD, read-out: EC50) [nM]	Kd [6] [nM]
CNC(=O)[C@H](Cc1ccc(O)cc1)NC(=O)[C@H](Cc1c[nH]cn1)NC(=O)[C@H](CC(C)C)NC(=O)[C@H](CC(C)C)NC(=O)[C@H](CCCNC(=N)N)NC(=O)[C@]1(C)CCCC=CC[C@]2(CCCN2C(C)=O)C(=O)N[C@@H](CC(C)C)C(=O)N[C@@H](CC(C)C)C(=O)N1 [PLL4-3, Ac-PL3-Leu-Leu-S5-Arg-Leu-Leu-His-Tyr-NHMe] (Ac-[X1]LL[S5]RLLHY-NHMe; staple 1-4)	< 0.1	73 ± 4	2.7	700	–	–	–	–	–	–
CNC(=O)[C@H](Cc1ccc(O)cc1)NC(=O)[C@@H](NC(=O)[C@H](CC(C)C)NC(=O)[C@H](CC(C)C)NC(=O)[C@H](CC(N)=O)NC(=O)[C@]1(C)CCCC=CC[C@]2(CCCN2C(C)=O)C(=O)N[C@@H](CCCCN)C(=O)N[C@@H](CC(C)C)C(=O)N1)[C@@H](C)O [PLL4-5, Ac-PL3-Lys-Leu-S5-Asn-Leu-Leu-Thr-Tyr-NHMe] (Ac-[X1]KL[S5]NLLTY-NHMe; staple 1-4)	–	–	1.8	–	0.7 ± 0.2	880 (≈ 1030 µg/mL)	0.7 ± 0.2 (×10^−6) cm/sec	74 ± 3	3000	–
{FITC}-[βAla]HPLL[Nle]RLLLSP-NH2 (Fluorescent probe of the FP assays; also called FITC-ERL4; FITC-ERL4 probe) [FITC labeled ERL4 peptide (FITC-βAla-His-Pro-Leu-Leu-Nle-Arg-Leu-Leu-Leu-Ser-Pro-CONH2)]	–	–	–	–	–	–	–	–	–	160
